One data set concerns the target T1, hMAO-B (Homo sapiens, UniProt P27338).
T1 construct: purchased Sigma-Aldrich Quimica S.A., Madrid, Spain; host or cells: insect cells (BTI-TN-5B1-4) infected with recombinant baculovirus
T1 sequence (P27338 1-520): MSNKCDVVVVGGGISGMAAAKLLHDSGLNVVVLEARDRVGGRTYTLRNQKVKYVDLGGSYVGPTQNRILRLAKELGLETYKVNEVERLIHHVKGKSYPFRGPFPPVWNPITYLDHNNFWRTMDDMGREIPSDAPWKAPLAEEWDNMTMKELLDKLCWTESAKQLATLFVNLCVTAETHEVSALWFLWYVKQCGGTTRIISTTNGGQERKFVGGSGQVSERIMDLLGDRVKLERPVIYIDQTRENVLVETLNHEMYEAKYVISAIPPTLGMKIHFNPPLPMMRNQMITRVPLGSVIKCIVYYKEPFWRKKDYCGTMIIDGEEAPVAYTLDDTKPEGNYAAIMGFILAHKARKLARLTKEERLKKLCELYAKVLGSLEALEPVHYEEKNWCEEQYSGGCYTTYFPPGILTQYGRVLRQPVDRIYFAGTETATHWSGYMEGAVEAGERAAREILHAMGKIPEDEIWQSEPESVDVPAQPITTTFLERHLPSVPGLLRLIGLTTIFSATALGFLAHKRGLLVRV
The data set is described as follows: hMAO-B inhibition (kynuramine to 4-hydroxyquinoline, microsomal recombinant enzyme). The class given is biochemical. The procedure:
(§1) The inhibitory activity of the rivastigmine hybrids (RIV–BIM) on hMAO-A and hMAO-B was studied using an experimental protocol described elsewhere with some modifications. The outlined hMAO inhibition was assessed in microsomal MAO isoforms prepared from insect cells (BTI-TN-5B1-4) infected with recombinant baculovirus containing cDNA inserts for hMAO-A or hMAO-B (Sigma-Aldrich Quimica S.A., Madrid, Spain) and by measuring the enzymatic conversion rates of kynuramine into 4-hydroxyquinoline. […] All assays were performed under sodium phosphate-buffered conditions (50 mM, pH = 7.4). […] Then, the reaction was started with the addition of hMAO-A or hMAO-B. Initial velocities were determined spectrophotometrically in a microplate reader (Biotek Synergy HT, Winooski, VT, USA) at 37 °C by measuring the formation of 4-hydroxyquinoline at 316 nm, over a period of at least 30 min (interval of 1 min). Data were analyzed using GraphPad PRISM version 6 for Windows (GraphPad Software®, San Diego, CA, USA). The initial velocities, obtained from the linear phase of product formation, were normalized and plotted against the respective inhibitor concentration. IC50 values were obtained from dose–response curves and were expressed as the mean ± standard deviation. IC50 values were determined from at least three independent experiments, each performed in triplicate.

For data set [1], the system named is Aβ42. Particulars: presence of copper (40 µM), 20 µM inhibitor, thioflavin-T fluorescence; cited from earlier work.
The target in another data set is T2, hMAO-A (Homo sapiens, UniProt P21397).
T2 construct: purchased Sigma-Aldrich Quimica S.A., Madrid, Spain; host or cells: insect cells (BTI-TN-5B1-4) infected with recombinant baculovirus
T2 sequence (P21397 1-527): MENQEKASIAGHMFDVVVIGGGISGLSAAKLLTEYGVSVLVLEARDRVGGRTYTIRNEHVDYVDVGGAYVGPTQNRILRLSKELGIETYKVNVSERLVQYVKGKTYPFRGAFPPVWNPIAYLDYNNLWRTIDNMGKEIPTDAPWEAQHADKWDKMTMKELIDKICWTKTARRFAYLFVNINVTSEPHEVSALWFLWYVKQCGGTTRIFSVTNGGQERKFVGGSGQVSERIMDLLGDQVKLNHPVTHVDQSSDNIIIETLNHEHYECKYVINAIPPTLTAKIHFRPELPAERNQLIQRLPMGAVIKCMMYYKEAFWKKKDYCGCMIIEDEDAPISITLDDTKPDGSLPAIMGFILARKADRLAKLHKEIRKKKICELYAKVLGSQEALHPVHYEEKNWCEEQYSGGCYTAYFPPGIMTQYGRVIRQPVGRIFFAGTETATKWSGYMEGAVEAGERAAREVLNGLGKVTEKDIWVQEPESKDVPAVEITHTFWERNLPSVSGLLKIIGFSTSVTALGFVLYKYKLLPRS
The data set can be described thus: hMAO-A inhibition (kynuramine to 4-hydroxyquinoline, microsomal recombinant enzyme). The class given is biochemical. Particulars: read-out: % Inhibition (at 10 µM) hMAO-A. The procedure: as §1

For data set [2], the system named is Aβ42. Particulars: absence of copper, 20 µM inhibitor, thioflavin-T fluorescence; cited from earlier work.
Data set [3] can be described thus: Fe(III) complexation by spectrophotometric titration. In kind it is physicochemical. The procedure: (§2) The metal complexation studies were performed by spectrophotometric titration, in the same 50% w/w DMSO/water medium used for both ligands alone, with fitting analysis of the UV-Vis spectra by Psequad. The calculated metal-chelating equilibrium models, included in Table 1, show good chelating capacity towards Cu(II) (pCu~10.3–13.6) and Fe(III) (pFe~16.8–17.4), involving complex species with a 1:1 to 1:2 or 1:1 to 1:3 M/L ratio, respectively. Metal coordination is expected to occur primarily through the phenolic oxygen and the imidazole nitrogen N(3) of the BIM moiety.
(§3) The two positional isomeric hybrids 4c and 5a were titrated, alone or in the presence of the metal ions, in a 50% w/w DMSO/H2O medium, at T = 25.0 ± 0.1 °C and ionic strength of (I) 0.1 M KCl, by using a 0.1 M KOH (50% w/w DMSO/H2O) titrant solution. The glass and Ag/AgCl reference electrodes were previously conditioned in different DMSO/H2O mixtures of increasing DMSO % compositions, and the response of the glass electrode was evaluated by strong acid–strong base (HCl/KOH) calibrations with the determination of the Nernst parameters by Gran’s method. […] The spectrophotometric measurements were carried out in a 250–450 nm (L, Cu/L systems) or 250–650 nm (L, Fe/L systems) wavelength range at pH ca 2.5–8.0. Under these specified experimental conditions, the pKw value (14.95) was determined and subsequently used in the calculations. The stepwise protonation constants of the ligands, Ki = [HiL]/[Hi−1L][H], and the overall metal–complex stability constants, βMmHhLl = [MmHhLl]/[M]^m[H]^h[L]^l, were calculated by fitting the spectrophotometric data with the Psequad program. The metal hydrolysis model was determined under the established experimental conditions (I = 0.1 M KCl, 50% w/w DMSO/H2O, T = 25.0 ± 0.1 °C) and the following values of stability constants were included in the equilibrium models related to the Fe(III)/L and Cu(II)/L systems: log βFeH−1 = −4.07, log βFeH−3 = −11.42; log βCu2H−2 = −9.99. The species distribution curves were obtained with the Hyss program.

Data set [4] is described as follows: Cu(II) complexation by spectrophotometric titration. The class given is physicochemical. The procedure: as §2, §3
Data set [5] in a line: Protonation constants by spectrophotometric titration (Psequad fitting). The class given is physicochemical. Particulars: pH 7.4, CL = 1 × 10^−5 M. The procedure: To formulate the model for the metal chelation mechanism of compounds 4c and 5a, their protonation constants were first determined by spectrophotometric titrations in a 50% (w/w) DMSO/H2O medium by fitting the experimental data with the program Psequad. This working medium was adopted to perform all the equilibrium studies due to certain solubility problems of the compounds. Since the concentration of the compound used in cell studies is low (<7 μM), the final corresponding concentration of DMSO in culture media would be much lower (<1%) and also is not expected to induce modifications of biological tissues.
The two positional isomeric hybrids 4c and 5a were titrated, alone or in the presence of the metal ions, in a 50% w/w DMSO/H2O medium, at T = 25.0 ± 0.1 °C and ionic strength of (I) 0.1 M KCl, by using a 0.1 M KOH (50% w/w DMSO/H2O) titrant solution. The glass and Ag/AgCl reference electrodes were previously conditioned in different DMSO/H2O mixtures of increasing DMSO % compositions, and the response of the glass electrode was evaluated by strong acid–strong base (HCl/KOH) calibrations with the determination of the Nernst parameters by Gran’s method. […] Under these specified experimental conditions, the pKw value (14.95) was determined and subsequently used in the calculations. […]

The mark [6] stands for this setting: pM = −log[M] at pH 7.4, CL/CM = 10, CM = 10^−6 M.

Usually inhibition stands for the drop in the measured response relative to a control, in per cent.

As to `CCN(C)C(=O)Oc1cccc(NC(=O)c2cccc3[nH]c(-c4ccccc4O)nc23)c1` [5a], the inhibition at 10 µM at hMAO-B came to 31%; at hMAO-A, 33%. In addition, the “Aβ42 Cu-ind. Aggreg. Inhib.” value with Aβ42 [1] is given as 45.4%. Also, the “Aβ42 Self- Aggreg. Inhib.” value with Aβ42 [2] was 44.5%. In data set [3] (FeL2 (102), T = 25.0 ± 0.1 °C, I = 0.1 M KCl, 50% w/w DMSO/water), the “log βFemHhLl, global formation constant, species (102)” value is listed as 23.82(4). Besides, the “log βFemHhLl, global formation constant, species (103)” value in data set [3] (FeL3 (103), T = 25.0 ± 0.1 °C, I = 0.1 M KCl, 50% w/w DMSO/water) is given as 30.20(8). Besides, the “log βFemHhLl, global formation constant, species (101)” value in data set [3] (FeL (101), T = 25.0 ± 0.1 °C, I = 0.1 M KCl, 50% w/w DMSO/water) is 12.53(5). Also, the “pM (pFe)” value in data set [3] (setting [6]) stood at 17.4. The “logβCumHhLl, global formation constant, species (1–11)” value in data set [4] (CuH−1L (1–11), T = 25.0 ± 0.1 °C, I = 0.1 M KCl, 50% w/w DMSO/water) is 3.82(8). Moreover, the “logβCumHhLl, global formation constant, species (102)” value in data set [4] (CuL2 (102), T = 25.0 ± 0.1 °C, I = 0.1 M KCl, 50% w/w DMSO/water) is recorded as 20.43(5). For the same molecule, in data set [4] (CuL (101), T = 25.0 ± 0.1 °C, I = 0.1 M KCl, 50% w/w DMSO/water), the “logβCumHhLl, global formation constant, species (101)” value is listed as 11.30(2). In data set [4] (calculated at pH 7.4, read-out: conditional dissociation constant (K’d) for the copper complex), the Kd is 0.098 nM. Moreover, in data set [4] (setting [6]), the “pM (pCu)” value came to 13.6. Further, in data set [5], the “predominant neutral species HL” value was determined as 94.9%.

(Values after article PMC10179505, “Rivastigmine–Benzimidazole Hybrids as Promising Multitarget Metal-Modulating Compounds for Potential Treatment of Neurodegenerative Diseases” (International Journal of Molecular Sciences, 2023).)
